In patent US8852604B2, “Multiepitope vaccine for Her2/neu-associated cancers” (Pevion Biotech AG, priority 2009, dated 2014):
Where two headings read alike, the source gives them in different places. No end group written: not given here.

Columns and labels:
[1] = Text: The polydispersity of a virosomal preparation is an indication for the homogeneity of the particle size in an aqueous solution, with lower polydispersity being associated with a greater degree of homogeneity of size over all virosomes present in the composition.
physchem [2] = assay: physchem
physchem [3] = assay: physchem; remark: listed apart in the source

Sequence	Stabilty(I)IRIV [1]	solubility (physchem [2])	solubility (physchem [3])
PESFDGDPASNTAPLQPRVLQGLPREYVNARHSLPYMPIWKFPDEEGAC [PEV604]	limited	800 µg/mL	500 to 1500 µg/mL
YMPIWKFPDEEGASPESFDGDPASNTAPLQPRVLQGLPREYVNARHC [PEV609, YMPIWKFPDEEGAS PESFDGDPASNTAPLQP RVLQGLPREYVNARHC]	limited	800 µg/mL	–
RVLQGLPREYVNARHC [PEV602, RVLQGLPREYVNARHC]	limited	500 µg/mL	–
RVLQGLPREYVNARHSPESFDGDPASNTAPLQPYMPIWKFPDEEGAC [PEV607, RVLQGLPREYVNARHS PESFDGDPASNTAPLQP YMPIWKFPDEEGAC]	limited	800 µg/mL	500 to 1500 µg/mL
PESFDGDPASNTAPLQPRVLQGLPREYVNARHSYMPIWKFPDEEGAC [PEV605, PESFDGDPASNTAPLQP RVLQGLPREYVNARHS YMPIWKFPDEEGAC]	limited	800 µg/mL	–
PESFDGDPASNTAPLQPYMPIWKFPDEEGASRVLQGLPREYVNARHC [PEV606, PESFDGDPASNTAPLQP YMPIWKFPDEEGAS RVLQGLPREYVNARHC]	limited	800 µg/mL	–
PESFDGDPASNTAPLQPGGGGGC [PEV601]	acceptable	2000 to 3000 µg/mL	–
YMPIWKFPDEEGAC [PEV603, YMPIWKFPDEEGAC]	limited	< 200 µg/mL	2000 to 3000 µg/mL
YMPIWKFPDEEGASRVLQGLPREYVNARHSPESFDGDPASNTAPLQPC [PEV610, YMPIWKFPDEEGAS RVLQGLPREYVNARHS PESFDGDPASNTAPLQPC]	limited	800 µg/mL	–
RVLQGLPREYVNARHSYMPIWKFPDEEGASPESFDGDPASNTAPLQPC [PEV608, RVLQGLPREYVNARHS YMPIWKFPDEEGAS PESFDGDPASNTAPLQPC]	limited	800 µg/mL	–
